# Columns and labels:
# [1] = system: L02; assay: Induction of apoptosis in human L02 cells assessed as necrotic cells at 10 nM after 72 hrs by annexin V-FITC/propidium iodide staining-based flow cytometric method (reference value: 0%); type: cell-based; settings: l02, 72 h, 0.01 µM
# [2] = system: A549; assay: Induction of apoptosis in human A549 cells assessed as early apoptotic cells at 200 nM after 72 hrs by annexin V-FITC/propidium iodide staining-based flow cytometric method (reference value: 3%); type: functional
# [3] = system: L02; assay: Induction of apoptosis in human L02 cells assessed as necrotic cells at 100 nM after 72 hrs by annexin V-FITC/propidium iodide staining-based flow cytometric method (reference value: 0%); type: cell-based; settings: l02, 72 h, 0.1 µM
# [4] = system: A549; assay: Induction of apoptosis in human A549 cells assessed as early apoptotic cells at 10 nM after 72 hrs by annexin V-FITC/propidium iodide staining-based flow cytometric method (reference value: 3%); type: functional
# [5] = system: A549; assay: Cell cycle arrest in human A549 cells assessed as accumulation at G2/M phase at 5 nM after 72 hrs by propidium iodide staining-based flow cytometric method (reference value: 14.23%); type: functional
# [6] = system: L02; assay: Induction of apoptosis in human L02 cells assessed as necrotic cells at 200 nM after 72 hrs by annexin V-FITC/propidium iodide staining-based flow cytometric method (reference value: 0%); type: cell-based; settings: l02, 72 h, 0.2 µM
# [7] = Induction of apoptosis in human L02 cells assessed as viable cells at 100 nM after 72 hrs by annexin V-FITC/propidium iodide staining-based flow cytometric method (reference value: 96.3%); type: cell-based; settings: read-out: Activity
# [8] = system: A549; assay: Induction of apoptosis in human A549 cells assessed as late apoptotic cells at 200 nM after 72 hrs by annexin V-FITC/propidium iodide staining-based flow cytometric method (reference value: 4.1%); type: functional
# [9] = system: L02; assay: Cell cycle arrest in human L02 cells assessed as accumulation at S phase at 10 nM after 72 hrs by propidium iodide staining-based flow cytometric method (reference value: 25.78%); type: ADME; settings: l02, 72 h, 0.01 µM
# [10] = system: A549; assay: Cell cycle arrest in human A549 cells assessed as accumulation at G2/M phase at 10 nM after 72 hrs by propidium iodide staining-based flow cytometric method (reference value: 14.23%); type: functional
# [11] = system: A549; assay: Cell cycle arrest in human A549 cells assessed as accumulation at S phase at 100 nM after 72 hrs by propidium iodide staining-based flow cytometric method (reference value: 24.48%); type: functional
# [12] = system: L02; assay: Cell cycle arrest in human L02 cells assessed as accumulation at S phase at 100 nM after 72 hrs by propidium iodide staining-based flow cytometric method (reference value: 25.78%); type: ADME; settings: l02, 72 h, 0.1 µM
# [13] = system: L02; assay: Induction of apoptosis in human L02 cells assessed as early apoptotic cells at 10 nM after 72 hrs by annexin V-FITC/propidium iodide staining-based flow cytometric method (reference value: 2%); type: cell-based; settings: l02, 72 h, 0.01 µM
# [14] = system: A549; assay: Cell cycle arrest in human A549 cells assessed as accumulation at S phase at 5 nM after 72 hrs by propidium iodide staining-based flow cytometric method (reference value: 24.48%); type: functional
# [15] = Induction of apoptosis in human L02 cells assessed as viable cells at 200 nM after 72 hrs by annexin V-FITC/propidium iodide staining-based flow cytometric method (reference value: 96.3%); type: cell-based; settings: read-out: Activity
compound,measurement,setting,value
COc1cc([C@@H]2c3cc4c(cc3[C@H](OC(=O)CN(C)C(=O)OC(C)(C)C)[C@H]3COC(=O)[C@H]23)OCO4)cc(OC)c1OC,Activity,[1],0%
same,Activity,[2],92.8%
same,Activity,[3],0%
same,Activity,[4],4.1%
same,Activity,[5],13.74%
same,Activity,[6],0.1%
same,"viability at 72 h, 0.1 µM",[7],87.3%
same,Activity,[8],2.1%
same,Activity,[9],24.59%
same,Activity,[10],13.54%
same,Activity,[11],47.13%
same,Activity,[12],18.93%
same,Activity,[13],4.3%
same,Activity,[14],26.07%
same,"viability at 72 h, 0.2 µM",[15],31.8%

# From ChEMBL document CHEMBL4152293, “Synthesis and biological evaluation of podophyllotoxin derivatives as selective antitumor agents” (Eur J Med Chem, 2018)
